In general, EC50 refers to the concentration giving half of the maximal effect. High values mean weaker potency, low ones greater potency.

The structures appear in SMILES notation.

The target in the experiment is T1, α-7 nicotinic acetylcholine receptor channel expressed in HEK 293 cells (Rattus norvegicus, UniProt Q05941).
T1 construct: expressed in transfected cells
T1 sequence (Q05941 23-502): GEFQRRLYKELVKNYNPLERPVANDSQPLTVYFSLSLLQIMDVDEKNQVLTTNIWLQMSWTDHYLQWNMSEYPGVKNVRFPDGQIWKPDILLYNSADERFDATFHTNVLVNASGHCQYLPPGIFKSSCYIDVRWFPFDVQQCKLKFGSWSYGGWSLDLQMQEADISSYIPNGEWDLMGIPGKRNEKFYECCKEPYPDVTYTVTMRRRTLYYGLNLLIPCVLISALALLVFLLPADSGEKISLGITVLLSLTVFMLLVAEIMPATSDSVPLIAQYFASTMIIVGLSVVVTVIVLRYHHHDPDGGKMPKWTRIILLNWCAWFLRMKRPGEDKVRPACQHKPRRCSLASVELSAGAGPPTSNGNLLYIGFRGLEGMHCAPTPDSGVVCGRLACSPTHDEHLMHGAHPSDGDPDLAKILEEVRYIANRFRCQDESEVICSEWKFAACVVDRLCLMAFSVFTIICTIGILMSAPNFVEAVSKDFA
The experiment is described as follows: Ca2+-sensitive fluorescence-based FLIPR assay, α7 nicotinic ACh receptor channel function (agonist). The following applies: FLIPR α7 activity rating (EC50, nM), Table 1; HEK 293 cells, agonist Ca2+ flux. The experiment is classed as cell-based. The procedure, abridged: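 Potency and efficacy derived from kinetic FLIPR Ca²⁺-flux fluorescence, recorded 3 min after compound addition in Hanks buffer following a 10 s baseline.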
The compound `Cc1cc(NC2=NC[C@@]3(CN4CCC3CC4)O2)nc(C)c1C#N` [Example 248, (R)-6-(4H-1′-Azaspiro[oxazole-5,3′-bicyclo[2.2.2]octane]-2-ylamino)-2,4-dimethylnicotinonitrile] registered an EC50 of 100 to 1000 nM. In the case of `c1ccc(-c2ccc(NC3=NC[C@@]4(CN5CCC4CC5)O3)nn2)cc1` [Example 249, (R)—N-(6-Phenylpyridazin-3-yl)-4H-1′-azaspiro[oxazole-5,3′-bicyclo[2.2.2]octan]-2-amine] it was 1000 to 100000 nM. For `Clc1ccc(NC2=NC[C@@]3(CN4CCC3CC4)O2)nc1Cl` [Example 251, (R)—N-(5,6-Dichloropyridin-2-yl)-4H-1′-azaspiro[oxazole-5,3′-bicyclo[2.2.2]octan]-2-amine] the value was less than 100 nM; for `Clc1cnc(NC2=NC[C@@]3(CN4CCC3CC4)O2)cc1Cl` [Example 252, (R)—N-(4,5-Dichloropyridin-2-yl)-4H-1′-azaspiro[oxazole-5,3′-bicyclo[2.2.2]octan]-2-amine], less than 100 nM. In the case of `Cc1cc(NC2=NC[C@@]3(CN4CCC3CC4)O2)ncc1Cl` [Example 253, (R)—N-(5-Chloro-4-methylpyridin-2-yl)-4H-1′-azaspiro[oxazole-5,3′-bicyclo[2.2.2]octan]-2-amine] it was less than 100 nM; in that of `Clc1ccc(NC2=NC[C@@]3(CN4CCC3CC4)O2)nn1` [Example 254, (R)—N-(6-Chloropyridazin-3-yl)-4H-1′-azaspiro[oxazole-5,3′-bicyclo[2.2.2]octan]-2-amine], 100 to 1000 nM. The compound `Brc1ccc(NC2=NC[C@@]3(CN4CCC3CC4)O2)nn1` [Example 255, (R)—N-(6-Bromopyridazin-3-yl)-4H-1′-azaspiro[oxazole-5,3′-bicyclo[2.2.2]octan]-2-amine] had an EC50 of 100 to 1000 nM. Take `Clc1ccc(-c2cc(NC3=NC[C@@]4(CN5CCC4CC5)O3)ncn2)cc1` [Example 256, (R)—N-(6-(4-Chlorophenyl)pyrimidin-4-yl)-4H-1′-azaspiro[oxazole-5,3′-bicyclo[2.2.2]octan]-2-amine]: the EC50 is less than 100 nM. In the case of `Clc1cccc(-c2cc(NC3=NC[C@@]4(CN5CCC4CC5)O3)ncn2)c1` [Example 257, (R)—N-(6-(3-Chlorophenyl)pyrimidin-4-yl)-4H-1′-azaspiro[oxazole-5,3′-bicyclo[2.2.2]octan]-2-amine] it was less than 100 nM; in that of `Cc1nnc(NC2=NC[C@@]3(CN4CCC3CC4)O2)o1` [Example 258, (R)—N-(5-Methyl-1,3,4-oxadiazol-2-yl)-4H-1′-azaspiro[oxazole-5,3′-bicyclo[2.2.2]octan]-2-amine], 1000 to 100000 nM; in that of `Cc1nsc(NC2=NC[C@@]3(CN4CCC3CC4)O2)n1` [Example 259, (R)—N-(3-Methyl-1,2,4-thiadiazol-5-yl)-4H-1′-azaspiro[oxazole-5,3′-bicyclo[2.2.2]octan]-2-amine], 1000 to 100000 nM. For `Cc1noc(NC2=NC[C@@]3(CN4CCC3CC4)O2)n1` [Example 260, (R)—N-(3-Methyl-1,2,4-oxadiazol-5-yl)-4H-1′-azaspiro[oxazole-5,3′-bicyclo[2.2.2]octan]-2-amine] the value was 100 to 1000 nM; for `CSc1cc(NC2=NC[C@@]3(CN4CCC3CC4)O2)ncn1` [Example 261, (R)—N-(6-(Methylthio)pyrimidin-4-yl)-4H-1′-azaspiro[oxazole-5,3′-bicyclo[2.2.2]octan]-2-amine], less than 100 nM.

Compound `c1ccn2c(NC3=NC[C@@]4(CN5CCC4CC5)O3)nnc2c1` [Example 262, (R)—N-([1,2,4]Triazol[4,3-a]pyridine-3-yl)-4H-1′-azaspiro[oxazole-5,3′-bicyclo[2.2.2]octan]-2-amine] displayed a concentration for a half-maximal effect (EC50) of 1000 to 100000 nM.

`Brc1cnc2nc(NC3=NC[C@@]4(CN5CCC4CC5)O3)sc2n1` [Example 263, (R)—N-(6-bromothiazolo[5,4-b]pyrazin-2-yl)-4H-1′-azaspiro[oxazole-5,3′-bicyclo[2.2.2]octan]-2-amine] came in with an EC50 of less than 100 nM. In the case of `CSc1cnc2nc(NC3=NC[C@@]4(CN5CCC4CC5)O3)sc2n1` [Example 264, (R)—N-(6-(methylthio)thiazolo[5,4-h]pyrazin-2-yl)-4H-1′-azaspiro[oxazole-5,3′-bicyclo[2.2.2]octan]-2-amine] it was 100 to 1000 nM; in that of `COc1ncc2nc(NC3=NC[C@@]4(CN5CCC4CC5)O3)sc2n1` [Example 265, (R)—N-(5-Methoxythiazolo[5,4-d]pyrimidin-2-yl)-4H-1′-azaspiro[oxazole-5,3′-bicyclo[2.2.2]octan]-2-amine], less than 100 nM. In turn, `CCc1nnc(NC2=NC[C@@]3(CN4CCC3CC4)O2)o1` [Example 266, (R)—N-(5-Ethyl-1,3,4-oxadiazol-2-yl)-4H-1′-azaspiro[oxazole-5,3′-bicyclo[2.2.2]octan]-2-amine] came in with an EC50 of 1000 to 100000 nM.

Turning to `Clc1cnc(NC2=NC[C@@]3(CN4CCC3CC4)O2)c(Cl)c1` [Example 267, (R)—N-(3,5-Dichloropyridin-2-yl)-4H-1′-azaspiro[oxazole-5,3′-bicyclo[2.2.2]octan]-2-amine], the EC50 is less than 100 nM.

On to `Clc1ccc2nc(NC3=NC[C@@]4(CN5CCC4CC5)O3)sc2n1` [Example 268, (R)—N-(5-chlorothiazolo[5,4-b]pyridin-2-yl)-4H-1′-azaspiro[oxazole-5,3′bicyclo[2.2.2]octan]-2-amine], for which the EC50 is less than 100 nM. In the case of `CN(C)c1ncc2nc(NC3=NC[C@@]4(CN5CCC4CC5)O3)sc2n1` [Example 269, (R)—N^5,N^5-dimethyl-N^2-(4H-1′-azaspiro[oxazole-5,3′-bicyclo[2.2.2]octane]-2-yl)thiazolo[5,4-d]pyrimidine-2,5-diamine] it was 1000 to 100000 nM; in that of `c1cn2nc(NC3=NC[C@@]4(CN5CCC4CC5)O3)nc2cn1` [Example 270, (R)—N-([1,2,4]Triazol[1,5-a]pyrazin-2-yl)-4H-1′-azaspiro[oxazole-5,3′-bicyclo[2.2.2]octan]-2-amine], less than 100 nM.

With `c1cnc2sc(NC3=NC[C@@]4(CN5CCC4CC5)O3)nc2c1` [Example 271, (R)—N-(Thiazolo[5,4-h]pyridin-2-yl)-4H-1′-azaspiro[oxazole-5,3′-bicyclo[2.2.2]octan]-2-amine], the EC50 was less than 100 nM. On to `c1cnc2sc(NC3=NC[C@@]4(CN5CCC4CC5)O3)nc2n1` [Example 272, (R)—N-(Thiazolo[5,4-b]pyrazin-2-yl)-4H-1′-azaspiro[oxazole-5,3′-bicyclo[2.2.2]octan]-2-amine], for which the EC50 was less than 100 nM.

In turn, `COc1nc(C)nc2sc(NC3=NC[C@@]4(CN5CCC4CC5)O3)nc12` [Example 273, (R)—N-(7-Methoxy-5-methylthiazolo[5,4-d]pyrimidin-2-yl)-4H-1′-azaspiro[oxazole-5,3′-bicyclo[2.2.2]octan]-2-amine] showed a half-maximal effective concentration (EC50) of 1000 to 100000 nM. For `COc1ncnc2sc(NC3=NC[C@@]4(CN5CCC4CC5)O3)nc12` [Example 274, (R)—N-(7-Methoxythiazolo[5,4-d]pyrimidin-2-yl)-4H-1′-azaspiro[oxazole-5,3′-bicyclo[2.2.2]octan]-2-amine] the value was 1000 to 100000 nM; for `N#Cc1cnc(NC2=NC[C@@]3(CN4CCC3CC4)O2)s1` [Example 275, (R)-2-(4H-1′-Azaspiro[oxazole-5,3′-bicyclo[2.2.2]octan]-2-ylamino)thiazole-5-carbonitrile], 100 to 1000 nM.

The values are drawn from US8309577B2, “Quinuclidine compounds as α-7 nicotinic acetylcholine receptor ligands” (Bristol-Myers Squibb Company, priority 2008, dated 2012).
